Assay results: patent publication EP2000140A1, “Use of derivatives of 3-oxo-2,3-dihydro-5H-thiazolo[3,2-a]pyrimidine or of 3-oxo-2,3-dihydro-5H-imidazolo[3,2-a]pyrimidine for the preparation of pharmaceutical compositions intended for the treatment of cancer” (INSTITUT NATIONAL DE LA SANTE ET DE LA RECHERCHE MEDICALE …, priority 2007, dated 2008)
Structures can show the parent of a compound that is named as a salt. Where two headings read alike, the source gives them in different places.

Columns and labels:
HeLa cells = test: Clonogenic assay (cloning inhibition, colony counting after crystal violet staining); type: cell-based; conditions: 10 days incubation
Method: For cloning inhibition assays, HeLa cells were plated at 100 cells/well in 6-well tissue culture plates with 2.5 mL of medium/well. After 24 h growing at 37 °C in a humidified atmosphere of 5% CO2, the culture medium was replaced by control medium or medium containing inhibitors at increasing concentrations (up to 100 µM) and incubated for 10 days. Cells were then washed with […] phosphate-buffered saline and fixed in 10% formaldehyde for 30 minutes at room temperature. They were carefully rinsed with water, stained with 1 mL crystal violet (2 g in 100 mL ethanol, then 2 mL in 100 mL water) for 10 minutes and finally rinsed with water. The plating efficiency was determined by counting the colonies. The results are expressed as the means of two independent experiments with three determinations per tested concentration. For each compound, the IC50 was determined from a sigmoidal dose-response using GraphPad Prism (GraphPad Software, San Diego, CA).
The effects on cell proliferation were further investigated in a clonogenic assay on HeLa cells. HeLa cells were treated at day 1 with increasing concentration of drugs and then plated for an additional 10-day. After crystal violet staining and colony counting, dose-response curve were drawn and the IC50 values determined.

[1] = molecular target: T1, MBP-CDC25B3 recombinant enzyme (Homo sapiens, UniProt P30305); test: In vitro enzymatic assay (fluorescein diphosphate as substrate); type: biochemical; conditions: recombinant fused MBP-CDC25B protein, fluorescein diphosphate 30 µM as substrate, concentration response up to 100 µM
T1 construct: made in house
T1 sequence (P30305 1-580): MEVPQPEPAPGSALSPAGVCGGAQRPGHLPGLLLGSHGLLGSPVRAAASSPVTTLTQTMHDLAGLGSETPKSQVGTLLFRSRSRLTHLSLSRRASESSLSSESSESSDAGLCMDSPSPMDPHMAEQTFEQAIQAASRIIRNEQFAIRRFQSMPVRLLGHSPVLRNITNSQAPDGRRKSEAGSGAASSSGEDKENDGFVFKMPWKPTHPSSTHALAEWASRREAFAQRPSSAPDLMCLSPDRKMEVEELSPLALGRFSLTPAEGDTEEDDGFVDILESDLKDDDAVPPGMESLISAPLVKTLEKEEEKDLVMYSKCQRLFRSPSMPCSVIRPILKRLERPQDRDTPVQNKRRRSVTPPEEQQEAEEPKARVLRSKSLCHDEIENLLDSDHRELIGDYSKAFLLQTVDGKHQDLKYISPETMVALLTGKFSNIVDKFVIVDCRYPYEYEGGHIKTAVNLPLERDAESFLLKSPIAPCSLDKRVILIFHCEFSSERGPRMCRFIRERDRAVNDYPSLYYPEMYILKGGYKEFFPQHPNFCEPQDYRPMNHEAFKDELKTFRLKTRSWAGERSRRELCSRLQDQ
Method: The activity of the MBP-CDC25B3 recombinant enzyme was monitored using fluorescein diphosphate as the substrate. The assay was performed in 96-well plates in a final volume of 200 µL. The maltose binding protein-CDC25B3 was kept in elution buffer [50mM phosphate pH 7.5, 300 mM NaCl, 500 mM imidazole, 10% glycerol]. It was diluted in assay buffer [30 mM Tris-HCl (pH 8.2), 75 mM NaCl, 0.67 mM EDTA, 0.033% BSA, 1 mM DTT]. The final concentration of CDC25B3 was 75 ng/well. Products were studied in a concentration response up to 100 µM. The reaction was initiated by addition of 30 µM of fluorescein diphosphate followed by immediate measure of fluorescein emission with a Fluoroskan Ascent (Lab Systems; excitation filter: 485 nm, emission filter: 530 nm). The results are expressed as the means of at least two independent experiments with three determinations per tested concentration and per experiment. For each compound, the drug concentration required for 50% inhibition (IC50) was determined from a sigmoidal dose-response curve using GraphPad Prism (GraphPad Software, San Diego, CA).
The compounds of formula (I) were evaluated for in vitro enzymatic activity inhibition on the recombinant fused MBP-CDC25B protein with fluorescein diphosphate as the substrate.

[2] = Homo sapiens, 240 h, read-out: IC50

Which results are given for `CCOC(=O)C1=C(C)N=c2sc(=Cc3ccc(O)cc3)c(=O)n2C1c1ccc2c(c1)OCO2` (centres unmarked) [(1a), ethyl 5-(benzo[1,3]dioxol-5-yl)-2-(4-hydroxybenzylidene)-7-methyl-3-oxo-2,3-dihydro-5H-thiazolo[3,2-a]pyrimidinium-6-carboxylate mesylate]?
IC50 (HeLa cells; mesylate): 14.8 µM; IC50 [1]: 6 µM

How did the IC50 [1] turn out when `COC(=O)C1=C(C)N=c2sc(=Cc3ccc(O)cc3)c(=O)n2C1c1ccc2c(c1)OCO2` (centres unmarked) [(12a), methyl 5-(benzo[1,3]dioxol-5-yl)-2-(4-hydroxybenzylidene)-7-methyl-3-oxo-2,3-dihydro-5H-thiazolo[3,2-a]pyrimidine-6-carboxylate] was run?
Its IC50 is 9.2 µM.

With `CCOC(=O)C1=C(C)N=c2sc(=Cc3ccc(O)cc3)c(=O)n2C1c1ccc2c(c1)OCO2` (stereo not drawn) [Compound 1, ethyl 5-(benzo[1,3]dioxol-5-yl)-2-(4-hydroxybenzylidene)-7-methyl-3-oxo-2,3-dihydro-5H-thiazolo[3,2-α]pyrimidine-6-carboxylate] as the molecule, how does the IC50 (HeLa cells; Homo sapiens, HeLa, 240 h) read?
The IC50 was 15.9 µM.

And the IC50 [1]?
The IC50 was 13 µM.

What does the source list for `CCOC(=O)C1=C(C)N=c2sc(=Cc3cc(Br)c(O)c(Br)c3)c(=O)n2C1c1ccc2c(c1)OCO2` (centres unmarked) [Compound 12, ethyl 5-(benzo[1,3]dioxol-5-yl)-2-(3,5-dibromo-4-hydroxybenzylidene)-7-methyl-3-oxo-2,3-dihydro-5H-thiazolo[3,2-a]pyrimidine-6-carboxylate]?
IC50 (HeLa cells; [2]): 9.75 µM; IC50 [1]: 16.7 µM

With `CCOC(=O)C1=C(C)N=c2sc(=Cc3ccc(OC(C)=O)c(OC(C)=O)c3)c(=O)n2C1c1ccc2c(c1)OCO2` (centres unmarked) [Compound (5a), ethyl 2-(3,4-diacetoxybenzylidene)-5-(benzo[1,3]dioxol-5-yl)-7-methyl-3-oxo-2,3-dihydro-5H-thiazolo[3,2-a]pyrimidine-6-carboxylate] as the molecule, how does the IC50 (HeLa cells; [2]) read?
Its IC50 is 1.8 µM.

And the IC50 [1]?
The IC50 was 1.2 µM.

Which results are given for `CCOC(=O)C1=C(C)N=c2sc(=Cc3ccc(OC(C)=O)c(OC(C)=O)c3)c(=O)n2C1c1ccc(OC)c(OC)c1` (centres unmarked) [Compound (5b), ethyl 2-(3,4-diacetoxybenzylidene)-5-(3,4-dimethoxyphenyl)-7-methyl-3-oxo-2,3-dihydro-5H-thiazolo[3,2-a]pyrimidine-6-carboxylate]?
IC50 (HeLa cells; [2]): 3.5 µM; IC50 [1]: 2.9 µM
